Laboratory results taken from patent US20120238532A1, “TREATMENT OF HUMAN OSTEOSARCOMA” (CEDARS-SINAI MEDICAL CENTER, priority 2009, published 2012).

Legend:
MG-63 cells [1] = test: MTT assay, MG-63 (dose-response, pulse-exposure, combination); assay type: cell-based, human; conditions: Homo sapiens, MTT, 48 hours of exposure, read-out: ED50 (the source's name)
Experimental: 7 human OS cell lines (U2OS, G292, MG-63, HT-161, HOS, SAOS-2, and SJSA) were used in the study. Each cell line except HT-161 was obtained from the American Type Culture Collection (ATCC, Rockville, Md.). HT-161 was obtained from Dr. Emil Bogenmann (13). All cell lines were tested and authenticated prior to use according to cell line verification test recommendations by ATCC. OS cell lines were maintained in DMEM medium (Mediatech Inc., Herndon, Va.) supplemented with 10% fetal bovine serum (FBS; Atlanta Biological, Lawrenceville, Ga.) in a humidified incubator at 37° C. supplied with 5% CO2. Only the cells in exponential growth phase were used in the study.
Cell growth and survival were measured by 3-(4,5-dimethylthiazol-2-yl)-2,5-diphenyltetrazolium bromide (MTT) assay. […] After 48 hours of incubation, 10 μl of 5 mg/ml MTT solution (Sigma-Aldrich, St. Louis, Mo.) was added to each well and incubated further for 2 hours. […] For pulse-exposure experiments, MG-63 and SAOS-2 cells were seeded in 96-well plates and exposed to CuB at their ED50. After 2, 9, and 20 hours of exposure, cells were washed twice with PBS and incubated further in CuB-free media. Cell growth was checked by MTT assay at 24, 48, and 72 hours.
Calcusyn 2.0 (Biosoft, Ferguson, Mo.) was used for CI analysis.

MG-63 cells [2] = test: Cell cycle analysis (PI, FACS), MG-63; assay type: cell-based, human; conditions: alone at ED50 (50 nM)
Experimental: (§1) Cells were harvested and fixed with 70% ethanol at regular time intervals. Fixed cells were stained with propidium iodide (PI) for flow cytometry analysis using BD FACScan (BD Biosciences, San Jose, Calif.). Distribution of cell cycle was analyzed by ModFit LT V2.0 software (Verity Software House, Topsham, Me.). […] After 24, 48, and 72 hours of exposure, cells were harvested and stained with PI and fluorescein isothiocyanate (FITC) using Annexin V-FITC apoptosis detection kit (BD Biosciences) according to the manufacturer's protocol. Cells were subjected to flow cytometry analysis within one hour of staining.

MG-63 cells [3] = test: Annexin V-FITC apoptosis assay, MG-63; assay type: cell-based, human; conditions: at ED50, 72 hours of exposure
Experimental: as §1

MG-63 xenografts [4] = test: Growth of MG-63 xenografts in athymic nude mice; assay type: in vivo; conditions: LD-MTX 150 mg/kg, single agent
Experimental: All animal experiments strictly followed the guidelines of Cedars-Sinai Medical Center and the National Institute of Health (NIH). Female nu/nu athymic nude mice (5-6 weeks old; average weight 21 g; specific pathogen-free) from Harlan Laboratories (Indianapolis, Ind.) were maintained in pathogen-free condition with sterilized chow and water. 5×10^6 cells of MG-63 cells were mixed with 200 μl of Matrigel solution (BD Biosciences) per injection, and the mixture was injected subcutaneously on the upper flanks of nude mice. After 24 hours, tumor size was measured, and any outliers were ruled out by one-way analysis of variance (ANOVA) test. […] The conversion was made using dose translation formula by Reagan-Shaw et al., (15). […] Body weights were monitored every 2 days. Tumor size was measured every 2 days, and the tumor volume was calculated using the following formula: A (length)×B (width)×C (height)×0.5236 (16). The experiment was stopped at day 35, and all mice were sacrificed. The presence of metastatic spread was examined macroscopically at the time of autopsy followed by histological examination. At least two tumors from each group were snap-frozen in liquid nitrogen for Western blotting.

[5] = Body weight and side-effects during xenograft treatment; assay type: in vivo, mice; conditions: LD-MTX 150 mg/kg
Experimental: All animal experiments strictly followed the guidelines of Cedars-Sinai Medical Center and the National Institute of Health (NIH). Female nu/nu athymic nude mice (5-6 weeks old; average weight 21 g; specific pathogen-free) from Harlan Laboratories (Indianapolis, Ind.) were maintained in pathogen-free condition with sterilized chow and water. 5×10^6 cells of MG-63 cells were mixed with 200 μl of Matrigel solution (BD Biosciences) per injection, and the mixture was injected subcutaneously on the upper flanks of nude mice. After 24 hours, tumor size was measured, and any outliers were ruled out by one-way analysis of variance (ANOVA) test. […] The dose of LD-MTX was the murine equivalent of the human dose of LD-MTX. The conversion was made using dose translation formula by Reagan-Shaw et al., (15). […] Body weights were monitored every 2 days. Tumor size was measured every 2 days, and the tumor volume was calculated using the following formula: A (length)×B (width)×C (height)×0.5236 (16). The experiment was stopped at day 35, and all mice were sacrificed. The presence of metastatic spread was examined macroscopically at the time of autopsy followed by histological examination. At least two tumors from each group were snap-frozen in liquid nitrogen for Western blotting.

MG-63 xenografts [6] = test: Immunohistochemistry of xenografts (HE, Ki-67, TUNEL); assay type: in vivo, mice; conditions: LD-MTX 150 mg/kg; day 35
Text: (§2) At autopsy, tumors and internal organs including liver, spleen, kidneys were excised, weighed, and then fixed in 10% PBS-buffered formalin and maintained in 70% ethanol. For IHC, fixed tumors and organs were embedded in paraplast (Oxford Labware, St. Louis, Mo.), cut in 6 μm thick sections, and stained with hematoxylin and eosin (HE) for histopathological examination.
For Ki-67 proliferation assay, tumor sections were deparaffinized with xylene and rehydrated through graded ethanol. Endogenous peroxidase activity was blocked with 3% hydrogen peroxide in methanol. […] After incubation, tumor sections were stained with diaminobenzidine (DAB) and counterstained with hematoxylin. Terminal deoxynucleotidyl transferase dUTP nick end labeling (TUNEL) apoptosis assay was performed using ApopTaq Plus Peroxidase In Situ Apoptosis Kit (Millipore) according to the manufacturer's protocol. Percent positive cells in representative microscopic fields were counted using ImageJ (17).

Organ weight in mice = assay type: in vivo; conditions: LD-MTX 150 mg/kg; day 35
Text: as §2

Blood counts in mice = assay type: in vivo; conditions: LD-MTX 150 mg/kg; day 35
Experimental: (§3) Whole blood samples were obtained by submandibular bleeding and serum samples were harvested with serum separator tubes (BD Biosciences). Blood count and serum chemistry results were obtained by the Hemagen Analyst Benchtop Chemistry System (Hemagen Diagnostics, Inc. Columbia, Md.). Colony-forming cell (CFC) assays were performed as previously described (18).

Serum chemistry in mice = assay type: in vivo; conditions: LD-MTX 150 mg/kg; day 35
Experimental: as §3

human OS cells = conditions: LD-MTX alone; xenograft studies using murine models (refs 24, 37); cited from earlier work
[7] = system: clonogenic hematopoietic cells; test: Colony-forming cell (CFC) assays of bone marrow; conditions: LD-MTX 150 mg/kg; day 35; 2 × 10^4 cells/well
Experimental: as §3

Structure (SMILES): CN(Cc1cnc2nc(N)nc(N)c2n1)c1ccc(C(=O)N[C@@H](CCC(=O)O)C(=O)O)cc1 [MTX, methotrexate, reference compound]
- EC50 (MG-63 cells [1]): 50 nM
- earliest sign of S-phase arrest (MG-63 cells [2]): 48 h
- apoptotic cells (MG-63 cells [3]): 30%
- tumor volume (MG-63 xenografts [4]): allowed the tumor volume to increase slightly from its original size
- mice with sluggish movements, occasional diarrhea, and a patchy skin rash [5]: 60%
- body weight loss ([5]; some mice, 48 hours after MTX injection): 10%
- HE-stained tumors (MG-63 xenografts [6]): less number of blood vessels
- Kidney organ weight (Organ weight in mice): 345 ± 1 mg
- Liver organ weight (Organ weight in mice): 1120 ± 21 mg
- Spleen organ weight (Organ weight in mice): 135 ± 7 mg
- Basophils (Blood counts in mice): 0.00 ± 0.00 K/μl
- Eosinophils (Blood counts in mice): 0.00 ± 0.00 K/μl
- Lymphocytes (Blood counts in mice): 4.05 ± 0.58 K/μl
- Monocytes (Blood counts in mice): 0.17 ± 0.04 K/μl
- Neutrophills (Blood counts in mice): 0.56 ± 0.42 K/μl
- RBCs (Blood counts in mice): 7.69 ± 0.16 M/μl
- WBCs (Blood counts in mice): 4.80 ± 0.99 K/μl
- CK (Serum chemistry in mice): 183.0 ± 140 U/l
- bilirubin (Serum chemistry in mice): 0.12 ± 0.00 mg/dL
- cholesterol (Serum chemistry in mice): 148.5 ± 24.7 mg/dL
- creatine (Serum chemistry in mice): 0.39 ± 0.21 mg/dL
- globulin (Serum chemistry in mice): 1.3 ± 0.4 g/dL
- total protein (Serum chemistry in mice): 4.6 ± 0.7 g/dL
- uric acid (Serum chemistry in mice): 4.7 ± 0.8 mg/dL
- growth inhibition of human OS cells (human OS cells): < 20%
- BFU-E, number of colonies [7]: 7.1 ± 0.8
- CFU-GEMM, number of colonies [7]: 3.4 ± 0.5
- CFU-GM, number of colonies [7]: 64.6 ± 3.6
